Values of other authors as cited in patent US20240024348A1, “METHODS AND COMPOSITIONS FOR THE TREATMENT OF GLAUCOMA AND RELATED CONDITIONS” (Ophthalmic Therapeutic Innovation, priority 2022, published 2024).
“Also recorded” adds a separate entry of the source. Like-named read-outs stand apart in the source and are kept apart here.

Key:
human TM cell [1] = conditions: high concentration (10 ug/mL); cited from earlier work
[2] = system: ischemia-reperfusion rodent model; conditions: cited from earlier work
[3] = system: patients with refractory glaucoma; conditions: two individual patients with refractory glaucoma; cited from earlier work
[4] = system: patients or human subjects; conditions: cited from earlier work; for conjunctiva hyperemia: eye drops, clinical trials
patient with NTG = conditions: cited from earlier work
patients with POAG/OH = conditions: cited from earlier work; for IOP reduction: Ph2, 1.5% BID
[5] = system: Dutch-belted pigmented and normotensive rabbit eyes; conditions: single dose 0.6% eye drop, cited from earlier work
[6] = system: POAG/OH patients with Latanoprost poor responders; conditions: cited from earlier work
patients = conditions: 3% QD and 6% QD with 0.005% QD Lantanoprost; cited from earlier work
young and aged C57 mice = conditions: 7 days, cited from earlier work
NAION mice model = conditions: cited from earlier work
human TM cell [7] = conditions: human TM cell culture; cited from earlier work
aged mice = conditions: 6% treatment, vs placebo treated eyes; cited from earlier work
light damaged rat models = conditions: cited from earlier work
rat = conditions: cited from earlier work
[8] = human donor eyes; cited from earlier work

## CCNC(=O)CCC/C=C\C[C@@H]1[C@@H](/C=C/[C@@H](O)CCc2ccccc2)[C@H](O)C[C@@H]1O [Bimatoprost]
Human TM cell [1]
  MMP-9 expression: upregulates MMP-9 expression

## Brc1c(NC2=NCCN2)ccc2nccnc12 [Brimonidine, reference compound]
[2]
  protection of RGC and outer layer photoreceptors: lacks effects toward the outer layer photoreceptor cells
[2]; listed as brimonidine
  protection of RGC and outer layer photoreceptors: did not protect photoreceptor loss

## CC(C)OC(=O)CCC/C=C\C[C@@H]1[C@@H](CC[C@@H](O)CCc2ccccc2)[C@H](O)C[C@@H]1O [Latanoprost]
Human TM cell [1]
  MMP-9 expression: upregulates MMP-9 expression

## CCCCCCCC(=O)CC[C@@H]1[C@@H](C/C=C\CCCC(=O)OC(C)C)[C@@H](O)C[C@H]1O [Rescula]
[3]
  IOP profile: slow mode and accumulative improvement over time

## Cc1ccc(C(=O)OCc2ccc([C@@H](CN)C(=O)Nc3ccc4cnccc4c3)cc2)c(C)c1 [Rhopressa, reference compound]
[4]
  conjunctiva hyperemia: 50%

## O=C(CCC/C=C\C[C@@H]1[C@@H](CC[C@@H](O)CCc2ccccc2)[C@H](O)C[C@@H]1O)OCCCCO[N+](=O)[O-] [Vyzulta, Latanoprost Bunod]
Patient with NTG; during the first 12-week of 12-month study, Japanese population
  IOP improvement: less than 1.0 mmHg
Patient with NTG; within the first 12-week of 12-month study
  IOP improvement: ~0.6 mmmHg

## Trabodenoson
Patients with POAG/OH; 14-Day Phase 2 dose escalation, 0.15%, 0.3%, 0.6%, 1.5% BID
  IOP dose response curve (IOP reduction from baseline IOP): 0.6% BID peaked at the top
Patients with POAG/OH; day 14, baseline IOP>21 mmHg
  IOP reduction: 6.5 mmHg
Patients with POAG/OH; day 14, baseline IOP>25 mmHg
  IOP reduction: > 7 mmHg
Patients with POAG/OH; Phase 2, 1.5% BID eye drops, baseline IOP>21 mmHg, in 2 weeks
  IOP improvement, day 28 vs Day 14: 0.9 mmHg
Patients with POAG/OH; Phase 2, 1.5% BID, early-stage population
  IOP reduction POAG vs OH: higher IOP reduction in patients with POAG than that with OH
Patients with POAG/OH; Phase 2 dose escalation, Day 14
  IOP reduction from the diurnal IOP at day -1: 1.5% BID is more effective than 0.15% BID, 0.3% BID, 0.6% BID at Day 14
Patients with POAG/OH; Phase 3 clinical trials, 3 months
  Phase 3 IOP endpoint: failed to meet the IOP endpoint at 3 months
Patients with POAG/OH; Phase 3 monotherapy, 6% QD, 3 months, vs placebo
  IOP time course: incremental increase of the IOP reduction; also recorded: continuous IOP improvement over a course of 3 months with clinical significance compared to placebo
Patients with POAG/OH; eye drops 1.5% BID, day 28 (4 weeks), early stage POAG/OH
  maximal IOP reduction: 6-7 mmHg
Patients with POAG/OH; eye drops, early stage POAG/OH with very mild damage
  time before reaching a steady state: more than 3 months
[4]; 819 subjects, 2 weeks to 3 months, 0.15% BID to 6% QD, up to 18% single dose
  systemic clinical safety and ocular tolerability: excellent systemic clinical safety and ocular tolerability
[4]
  conjunctiva hyperemia: 2.56%
[5]; at 2 hours
  IOP reduction from the baseline: 25%-27%
[5]
  time of IOP return to the baseline: 6 h
[6]; 1.5% BID 8 weeks then 3.0% QD 4 weeks, add-on to Latanoprost, 12 weeks
  IOP time course: robust and continuous IOP improvement over the course of 12 weeks; also recorded: robust and incremental IOP improvement over a course of 12-week treatment time
[6]; Lantanoprost poor responders
  effectiveness POAG vs OH: more effective in patients with POAG than with OH
patients
  IOP efficacy of combination vs Lantanoprost alone: less effective than 0.005% QD Lantanoprost alone
Young and aged C57 mice; 3% QD, young C57 mice
  IOP reduction over time: sustained over 7 days
Young and aged C57 mice; 6% QD, aged C57 mice
  IOP lowering effect over time: slowly diminished at day 7
NAION mice model; 6% eye drops BID, vs placebo control
  axon loss and myelination damage of optic nerve (EM): significant reduction of the axon loss and myelination damage
NAION mice model; NAION mice model
  RGC neural protection: potent neural protectant for RGC cell rescue
Human TM cell [7]
  MMP-14 expression: upregulating MMP-14 expression
  collagen IV and fibronectin: downregulation of collagen IV and fibronectin
Aged mice
  TM morphology / ECM: TM mesh pores opening up and ECM remodeling with enlarged ECM space
[2]
  protection of RGC and outer layer photoreceptors: demonstrated neural protection for both RGC inner layer of the neurons and the outer layer of neurons (photoreceptors); also recorded: more potent in rescuing and protecting the RGC and outer layer photoreceptors from apoptosis
Light damaged rat models
  photoreceptor cell loss: rescuing photoreceptor cell loss
rat
  heart rate: reduces the heart rate in rat

B1: MMP-2: matrix metalloproteinase (protein, UniProt P08253 110-660, looked up)
72 kDa type IV collagenase: YNFFPRKPKWDKNQITYRIIGYTPDLDPETVDDAFARAFQVWSDVTPLRFSRIHDGEADIMINFGRWEHGDGYPFDGKDGLLAHAFAPGTGVGGDSHFDDDELWTLGEGQVVRVKYGNADGEYCKFPFLFNGKEYNSCTDTGRSDGFLWCSTTYNFEKDGKYGFCPHEALFTMGGNAEGQPCKFPFRFQGTSYDSCTTEGRTDGYRWCGTTEDYDRDKKYGFCPETAMSTVGGNSEGAPCVFPFTFLGNKYESCTSAGRSDGKMWCATTANYDDDRKWGFCPDQGYSLFLVAAHEFGHAMGLEHSQDPGALMAPIYTYTKNFRLSQDDIKGIQELYGASPDIDLGTGPTPTLGPVTPEICKQDIVFDGIAQIRGEIFFFKDRFIWRTVTPRDKPMGPLLVATFWPELPEKIDAVYEAPQEEKAVFFAGNEYWIYSASTLERGYPKPLTSLGLPPDVQRVDAAFNWSKNKKTYIFAGDKFWRYNEVKKKMDPGFPKLIADAWNAIPDNLDAVVDLQGGGHSYFFKGAYYLKLENQSLKSVKFGSIKSDWLGC
[8]
  hydraulic conductance of Bruch's membrane: increases hydraulic conductance
